Source: ChEMBL document CHEMBL1201862, “PubChem BioAssay data set” (2004)
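Briefly, cells in 96-well plates were exposed to five compound concentrations for 48 h, and endpoints were estimated by linear interpolation. GI50: concentration for 50% inhibition of growth.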 Activity calls are given as the source filed them. No stated cut-off is given here; in the data, active = GI50 up to about 1.1 µM and inactive = higher.

Columns and labels:
Assay in all cases: inhibition of tumour cell growth, NCI panel, 48 h
KM12 = system: KM12
SN12C = system: SN12C
MDA-MB-435 = system: MDA-MB-435
SK-OV-3 = system: SK-OV-3
HCT-15 = system: HCT-15
UACC-257 = system: UACC-257
RPMI-8226 = system: RPMI-8226
LOX IMVI = system: LOX IMVI
NCI-H23 = system: NCI-H23
MDA-MB-231 = system: MDA-MB-231
CCRF-CEM = system: CCRF-CEM
U-251 = system: U-251
COLO 205 = system: COLO 205
OVCAR-8 = system: OVCAR-8
OVCAR-5 = system: OVCAR-5
Malme-3M = system: Malme-3M
NCI-H522 = system: NCI-H522
K562 = system: K562
DLD-1 = system: DLD-1

SMILES: NC(=S)N1N=C2c3ccccc3CCC[C@H]2[C@@H]1c1ccccc1
- GI50 (KM12): 0.693 µM (active)
- GI50 (SN12C): 2.52 µM (inactive)
- GI50 (MDA-MB-435): 0.0977 µM (active)
- GI50 (SK-OV-3): 0.427 µM (active)
- GI50 (HCT-15): 1.29 µM
- GI50 (UACC-257): 2.21 µM (inactive)
- GI50 (RPMI-8226): 0.824 µM (active)
- GI50 (LOX IMVI): 1.59 µM (inactive)
- GI50 (NCI-H23): 1.84 µM (inactive)
- GI50 (MDA-MB-231): 0.513 µM (active)
- GI50 (CCRF-CEM): 0.528 µM (active)
- GI50 (U-251): 2.33 µM (inactive)
- GI50 (COLO 205): 1.67 µM (inactive)
- GI50 (OVCAR-8): 3.2 µM (inactive)
- GI50 (OVCAR-5): 9.57 µM (inactive)
- GI50 (Malme-3M): 0.488 µM (active)
- GI50 (NCI-H522): 0.361 µM (active)
- GI50 (K562): 0.284 µM (active)
- GI50 (DLD-1): 3.42 µM (inactive)
